Entries after “also recorded” stand apart in the source; their conditions may differ. Read-outs that look alike come from different tables or passages of the source. Residues, ends and D or L forms follow the SMILES beside them.
Tests used:
[1] = biological target: HumRadA2 (humanised, monomeric RadA; surrogate for RAD51) (Pyrococcus furiosus, UniProt O74036); test: Isothermal titration calorimetry of peptides against HumRadA2; format: binding; details: for ΔH: Tris pH 7.5, 100 mM NaCl, low c-value conditions, ± = model-fitting error; for TΔS: ΔS derived from ΔG by subtracting ΔH; for Change in binding affinity relative to FHTA: ITC K D compared with FHTA
Protocol: Protein expression and purification was performed as described previously 15. In brief, monomeric HumRadA2 was expressed in E. coli using T7‐based expression vector at 37 °C for 3 h. Soluble cell lysate was heat treated to precipitate most of the cellular proteins and the soluble fraction containing HumRadA2 was purified using a combination of cation exchange chromatography at pH 6.0 and size‐exclusion chromatography in 10 mM MES, 100 mM NaCl pH 6.0 buffer. Protein concentration was determined using the calculated extinction coefficient at 280 nm, and stored at −80 °C in small aliquots after flash freezing.
Isothermal titration calorimetry experiments were performed at 25 °C on a MicroCal iTC200. HumRadA2 (600 μM in 20 mM MES pH 6.0 with 100 mM NaCl and 0.5 mM EDTA) was diluted with Tris buffer (200 mM, pH 7.5 with 100 mM NaCl) to 64–83 μM. […] The peptide solution was titrated into the protein solution; 16 injections (2.4 μL) of 4.8 s duration were made at 80‐s intervals. The initial injection of ligand (0.4 μL) was discarded during data analysis. […] The data were processed and thermodynamic parameters obtained by fitting the data to a single‐site‐binding model using Origin software and fixing the stoichiometry as 1.0 for weak‐binding ligands 16.

[2] = biological target: HumRadA2 (humanised, monomeric RadA from Pyrococcus furiosus) (Pyrococcus furiosus) (UniProt O74036); test: ITC; peptide (2.5-5 mM) titrated into HumRadA2 (64-83 μM) at 25 °C, MicroCal iTC200, 200 mM Tris pH 7.5, 100 mM NaCl; single-site model, stoichiometry fixed as 1.0 for weak-binding ligands; low c-value conditions
[3] = test system: RAD51; details: RAD51 oligomerisation sequence FTTA mutated; cited from earlier work
Description: Table 1 Summary of FxxA‐relevant mutations previously reported and degree of characterisation. The mutation, relevant peptide context, resulting FxxA motif sequence and experimental technique for each entry is given. For clarity, mutated residues are shown in bold | column: Effect

[4] = biological target: HumRadA2 (humanised, monomeric RadA from Pyrococcus furiosus) (Pyrococcus furiosus) (UniProt O74036); test: ITC; peptide (2.5-5 mM) titrated into HumRadA2 (64-83 μM) at 25 °C, MicroCal iTC200, 200 mM Tris pH 7.5, 100 mM NaCl; single-site model, stoichiometry fixed as 1.0 for weak-binding ligands; low c-value conditions; remark: listed apart in the source
[5] = ITC, 25 °C, MicroCal iTC200, peptide 2.5–5 mM in 200 mM Tris pH 7.5, 100 mM NaCl titrated into 64–83 μM HumRadA2, single-site model, stoichiometry fixed at 1.0 for weak binders, ± = fitting error

Row | dH [2] [kcal/mol] | Molecule | Kd [1, 5] [µM] | ΔH ([1]; ITC, 25 °C) [kcal/mol] | TΔS ([1]; ITC, 25 °C) [kcal/mol] | also measured
1 |  | CC(=O)N[C@@H](Cc1ccccc1)C(=O)N[C@@H](Cc1c[nH]cn1)C(=O)N[C@@H](C)C(=O)N[C@@H](C)C(N)=O [FHAA] (Ac-FHAA-NH2) | 675 ± 60 | -7.948 ± 0.466 | -3.636 | 
2 |  | CC(=O)N[C@@H](Cc1ccccc1)C(=O)N[C@@H](Cc1c[nH]cn1)C(=O)N1CCC[C@H]1C(=O)N[C@@H](C)C(N)=O [FHPA] (Ac-FHPA-NH2) | 113 ± 3 | -2.155 ± 0.026 | 3.218 | 
3 |  | CC(=O)N[C@@H](Cc1ccccc1)C(=O)N[C@@H](Cc1c[nH]cn1)C(=O)N[C@H](C(=O)N[C@@H](C)C(N)=O)[C@@H](C)O [FHTA] (Ac-FHTA-NH2) |  | -2.388 ± 0.094 | 2.453 | 
4 |  | CC(=O)N[C@@H](Cc1ccccc1)C(=O)N[C@@H](Cc1c[nH]cn1)C(=O)N[C@H](C(=O)NCC(N)=O)[C@@H](C)O [FHTG] (Ac-FHTG-NH2) | 1590 ± 300 | -5.518 ± 0.924 | -1.702 | Change in binding affinity relative to FHTA [1]: approximately sixfold drop in binding affinity
5 |  | CC[C@H](NC(=O)[C@@H](NC(=O)[C@H](Cc1c[nH]cn1)NC(=O)[C@H](Cc1ccccc1)NC(C)=O)[C@@H](C)O)C(N)=O [FHTU] (HELM PEPTIDE1{[ac].F.H.T.[Abu].[am]}$$$$V2.0) | 680 ± 51 |  |  | 
6 |  | CC(=O)N[C@@H](Cc1ccccc1)C(=O)N[C@@H](CC(N)=O)C(=O)N[C@H](C(=O)N[C@@H](C)C(N)=O)[C@@H](C)O [FNTA] (Ac-FNTA-NH2) | 613 ± 44 | -4.036 ± 0.177 | 0.346 | 
7 |  | CC(=O)N[C@@H](Cc1c[nH]c2ccccc12)C(=O)N[C@@H](Cc1c[nH]cn1)C(=O)N1CCC[C@H]1C(=O)N[C@@H](C)C(N)=O [WHPA] (Ac-WHPA-NH2) | 330 ± 25 | -6.801 ± 0.318 | -2.044 | Change in binding affinity relative to FHTA [1]: no improvement
8 |  | CC(=O)N[C@@H](Cc1c[nH]c2ccccc12)C(=O)N[C@@H](Cc1c[nH]cn1)C(=O)N[C@H](C(=O)N[C@@H](C)C(N)=O)[C@@H](C)O [WHTA] (Ac-WHTA-NH2) | 93 ± 3 | -2.768 ± 0.034 | 2.727 | Change in binding affinity relative to FHTA [1]: increase the binding affinity of the peptide approximately threefold
9 | -14.6 | FHTU tetrapeptide (U = α-amino butyric acid) |  |  |  | 
10 |  | FPTA [N-acetylated, C-amide terminated tetrapeptide FPTA] |  |  |  | K D [1, 5]: no affinity for the protein; also recorded: No detectable binding
11 |  | RAD51 A89E: RAD51 with oligomerisation sequence FTTA mutated to FTTE (literature) (protein, UniProt Q06609 2-339, looked up, variant A89E) DNA repair protein RAD51 …: AMQMQLEANADTSVEEESFGPQPISRLEQCGINANDVKKLEEAGFHTVEAVAYAPKKELINIKGISEAKADKILAEAAKLVPMGFTTETEFHQRRSEIIQITTGSKELDKLLQGGIETGSITEMFGEFRTGKTQICHTLAVTCQLPIDRGGGEGKAMYIDTEGTFRPERLLAVAERYGLSGSDVLDNVAYARAFNTDHQTQLLYQASAMMVESRYALLIVDSATALYRTDYSGRGELSARQMHLARFLRMLLRLADEFGVAVVITNQVVAQVDGAAMFAADPKKPIGGNIIAHASTTRLYLRKGRGETRICKIYDSPCLPEAEAMFAINADGVGDAKD |  |  |  | Effect of mutation (binding) [3]: No binding
12 |  | RAD51 F86E: RAD51 with oligomerisation sequence FTTA mutated to ETTA (literature) (protein, UniProt Q06609 2-339, looked up, variant F86E) DNA repair protein RAD51 …: AMQMQLEANADTSVEEESFGPQPISRLEQCGINANDVKKLEEAGFHTVEAVAYAPKKELINIKGISEAKADKILAEAAKLVPMGETTATEFHQRRSEIIQITTGSKELDKLLQGGIETGSITEMFGEFRTGKTQICHTLAVTCQLPIDRGGGEGKAMYIDTEGTFRPERLLAVAERYGLSGSDVLDNVAYARAFNTDHQTQLLYQASAMMVESRYALLIVDSATALYRTDYSGRGELSARQMHLARFLRMLLRLADEFGVAVVITNQVVAQVDGAAMFAADPKKPIGGNIIAHASTTRLYLRKGRGETRICKIYDSPCLPEAEAMFAINADGVGDAKD |  |  |  | Effect of mutation (binding) [3]: No binding
13 | -7.95 | Ac-FHAA-NH2 [FHAA tetrapeptide] |  |  |  | 
14 | -6.8 | Ac-WHPA-NH2 [WHPA tetrapeptide] |  |  |  | Kd [4]: 690 µM
15 | -2.77 | Ac-WHTA-NH2 [WHTA tetrapeptide] |  |  |  | 
16 | -4.04 | Ac-FNTA-NH2 [FNTA tetrapeptide] |  |  |  | 
17 | -5.52 | Ac-FHTG-NH2 [FHTG tetrapeptide] |  |  |  | 
18 | -2.39 | Ac-FHTA-NH2 [FHTA tetrapeptide (FxxA motif of BRC4 of BRCA2)] |  |  |  | Kd [2]: 280 µM
19 | -2.16 | Ac-FHPA-NH2 [FHPA tetrapeptide] |  |  |  | 

— PMC4855620, “Structure‐activity relationship of the peptide binding‐motif mediating the BRCA2:RAD51 protein–protein interaction” (Febs Letters, 2016)
